In patent US5151417A, “3-substituted vinyl cephalosporin derivatives” (Eisai Co., Ltd., priority 1989, dated 1992):
≈ marks a conversion by molar mass, not a printed value. Where two headings read alike, the source gives them in different places.

Assays:
Type in all cases: cell-based
[1] = system: Staphylococcus aureus 209-P; experiment: In vitro antibacterial activity, Staphylococcus aureus 209-P (Tables 2-6)
Experimental: (§1) Typical compounds out of the compounds described in Examples were classified into some groups. On each compound group, in vitro antibacterial activities were tested by a method known per se in the art.

[2] = system: Morganella morganii EP-14; experiment: In vitro antibacterial activity, Morganella morganii EP-14 (Tables 2-6)
Experimental: as §1

[3] = system: Serratia marcescens ES-75; experiment: In vitro antibacterial activity, Serratia marcescens ES-75 (Tables 2-6)
Experimental: as §1

[4] = system: Escherichia coli NIHJ; experiment: In vitro antibacterial activity, Escherichia coli NIHJ (Tables 2-6)
Experimental: as §1

[5] = system: Klebsiella pneumoniae EK-6; experiment: In vitro antibacterial activity, Klebsiella pneumoniae EK-6 (Tables 2-6)
Experimental: as §1

[6] = Staphylococcus aureus, 209P, Staphylococcus aureus 209-P, read-out: MIC
[7] = Escherichia coli, Escherichia coli NIHJ, read-out: MIC
[8] = Klebsiella pneumoniae, EK6, Klebsiella pneumoniae EK-6, read-out: MIC
[9] = Morganella morganii, EP14, Morganella morganii EP-14, read-out: MIC
[10] = Serratia marcescens, ES75, Serratia marcescens ES-75, read-out: MIC

Compound	MIC [1, 6] [µg/mL]	MIC [5, 8] [µg/mL]	MIC ([1]; Staphylococcus aureus, 209P) [µg/mL]	MIC ([2]; Morganella morganii, EP14) [µg/mL]	MIC ([3]; Serratia marcescens, ES75) [µg/mL]	MIC ([4]; Escherichia coli) [µg/mL]	MIC ([5]; Klebsiella pneumoniae, EK6) [µg/mL]	further results
CO/N=C(\C(=O)N[C@@H]1C(=O)N2C(C(=O)O)=C(/C=C/C3CCCO3)CS[C@H]12)c1csc(N)n1 (single isomer, unassigned) [48 A]	0.4 (≈ 0.834 µM)	0.2 (≈ 0.417 µM)	–	–	–	–	–	MIC ([2]; Morganella morganii EP-14): 0.025 µg/mL (≈ 0.0521 µM); MIC ([3]; Serratia marcescens ES-75): 0.025 µg/mL (≈ 0.0521 µM); MIC [4, 7]: 0.4 µg/mL (≈ 0.834 µM)
CO/N=C(\C(=O)N[C@@H]1C(=O)N2C(C(=O)O)=C(/C=C/C3CCCO3)CS[C@H]12)c1csc(N)n1 (single isomer, unassigned) [48 B]	–	–	–	–	–	–	–	MIC ([1]; Staphylococcus aureus 209-P): 0.8 µg/mL (≈ 1.67 µM); MIC ([2]; Morganella morganii EP-14): 0.2 µg/mL (≈ 0.417 µM); MIC ([3]; Serratia marcescens ES-75): 0.1 µg/mL (≈ 0.209 µM); MIC ([4]; Escherichia coli NIHJ): 0.8 µg/mL (≈ 1.67 µM); MIC ([5]; Klebsiella pneumoniae EK-6): 0.4 µg/mL (≈ 0.834 µM)
Nc1nc(/C(=N/O)C(=O)N[C@@H]2C(=O)N3C(C(=O)O)=C(/C=C/C4CCCO4)CS[C@H]23)cs1 (single isomer, unassigned) [50 A]	0.1 (≈ 0.215 µM)	0.2 (≈ 0.43 µM)	–	–	–	–	–	MIC ([2]; Morganella morganii EP-14): 0.05 µg/mL (≈ 0.107 µM); MIC ([3]; Serratia marcescens ES-75): 0.1 µg/mL (≈ 0.215 µM); MIC ([4]; Escherichia coli NIHJ): 0.2 µg/mL (≈ 0.43 µM)
Nc1nc(/C(=N/O)C(=O)N[C@@H]2C(=O)N3C(C(=O)O)=C(/C=C/C4CCCO4)CS[C@H]23)cs1 (single isomer, unassigned) [50 B]	–	–	–	–	–	–	–	MIC ([1]; Staphylococcus aureus 209-P): 0.1 µg/mL (≈ 0.215 µM); MIC ([2]; Morganella morganii EP-14): 0.2 µg/mL (≈ 0.43 µM); MIC ([3]; Serratia marcescens ES-75): 0.4 µg/mL (≈ 0.859 µM); MIC ([4]; Escherichia coli NIHJ): 0.8 µg/mL (≈ 1.72 µM); MIC ([5]; Klebsiella pneumoniae EK-6): 0.4 µg/mL (≈ 0.859 µM)
CO/N=C(\C(=O)N[C@@H]1C(=O)N2C(C(=O)O)=C(/C=C\c3cncnc3)CS[C@H]12)c1csc(N)n1 [Example 14]	0.8 (≈ 1.64 µM)	0.2 (≈ 0.41 µM)	–	–	–	–	–	MIC [2, 9]: 0.05 µg/mL (≈ 0.103 µM); MIC [3, 10]: 0.8 µg/mL (≈ 1.64 µM); MIC [4, 7]: 0.4 µg/mL (≈ 0.82 µM)
Nc1nc(/C(=N/O)C(=O)N[C@@H]2C(=O)N3C(C(=O)[O-])=C(/C=C\c4cncnc4)CS[C@H]23)cs1.[Na+] [Example 16, Sodium 7β-[(Z)-2-(2-aminothiazol-4-yl)-2-(hydroxyimino)acetamido]-3-[(Z)-2 (pyrimidin-5-yl)vinyl]-3-cephem-4-carboxylate]	–	–	0.2	0.012	> 100	0.1	0.05	–
Cc1ncc(/C=C\C2=C(C(=O)O)N3C(=O)[C@@H](NC(=O)/C(=N\O)c4csc(N)n4)[C@H]3SC2)cn1 [Example 21]	0.2 (≈ 0.41 µM)	0.1 (≈ 0.205 µM)	–	–	–	–	–	MIC [2, 9]: 0.025 µg/mL (≈ 0.0513 µM); MIC [3, 10]: 0.2 µg/mL (≈ 0.41 µM); MIC [4, 7]: 0.2 µg/mL (≈ 0.41 µM)
Nc1nc(/C(=N/O)C(=O)N[C@@H]2C(=O)N3C(C(=O)[O-])=C(/C=C/c4cncnc4N)CS[C@H]23)cs1.[Na+] [Example 23, Sodium 7β[(Z)-2-(2-aminothiazol-4-yl)-2-(hydroxyimino)acetamido]-3-[(E)-2-(4-aminopyrimidin-5-yl)vinyl]-3-cephem-4-carboxylate]	–	–	0.2	0.012	> 100	0.4	0.025	–
COc1ncncc1/C=C\C1=C(C(=O)[O-])N2C(=O)[C@@H](NC(=O)/C(=N\O)c3csc(N)n3)[C@H]2SC1.[Na+] [Example 25, Sodium 7β-[(Z)-2-(2-aminothiazol-4-yl)-2-(hydroxyimino)acetamido]-3-[(Z)-2-(4-methoxypyrimidin-5-yl)vinyl]-3-cephem-4-carboxylate]	–	–	0.2	0.1	0.2	0.8	0.4	–
CO/N=C(\C(=O)N[C@@H]1C(=O)N2C(C(=O)[O-])=C(/C=C/c3cnccn3)CS[C@H]12)c1csc(N)n1.[Na+] [Example 27, Sodium 7β-[(Z)-2-(2-aminothiazol-4-yl)-2-(methoxyimino)acetamido]-3-[(E)-2-(pyrazin-2-yl)vinyl]-3-cephem-4-carboxylate]	–	–	0.8	0.05	0.05	0.2	0.1	–
CO/N=C(\C(=O)N[C@@H]1C(=O)N2C(C(=O)O)=C(/C=C/c3c(Cl)ncnc3Cl)CS[C@H]12)c1csc(N)n1 [Example 29 (E)]	–	–	–	–	–	–	–	MIC [2, 9]: 0.4 µg/mL (≈ 0.719 µM); MIC [3, 10]: 6.25 µg/mL (≈ 11.2 µM)
CO/N=C(\C(=O)N[C@@H]1C(=O)N2C(C(=O)[O-])=C(/C=C\c3c(Cl)ncnc3Cl)CS[C@H]12)c1csc(N)n1.[Na+] [Example 29 (Z), Sodium 7β-[(Z)-2-(2-aminothiazol-4-yl)-2-(methoxyimino)acetamido]-3-[(Z)-2-(4,6-dichloropyrimidin-5-yl)vinyl]-3-cephem-4-carboxylate]	–	–	1.56	0.8	3.13	3.13	7.56	–
CN(C)C(=O)OC/C=C\C1=C(C(=O)[O-])N2C(=O)C(NC(=O)/C(=N\O)c3csc(N)n3)[C@H]2SC1.[Na+] (stereo partly shown) [Example 30, Sodium 7-[(Z)-2-(2-aminothiazol-4-yl)-2-hydroxyiminoacetamido]-3-[(Z)-3-(N,N-dimethylcarbamoyloxy)-1-propenyl]-3-cephem-4-carboxylate]	–	–	0.2	0.05	0.05	0.2	0.2	–
Nc1nc(/C(=N/O)C(=O)NC2C(=O)N3C(C(=O)O)=C(/C=C\COC(=O)N4CCOCC4)CSC23)cs1 (stereo not shown) [Example 32, Sodium 7-[(Z)-2-(2-aminothiazol-4-yl)-2-hydroxyiminoacetamido]-3-[(Z)-3-(1-morphorinylcarbonyloxy)-1-propenyl]-3-cephem-4-carboxylate]	0.2	0.1	–	–	–	–	–	MIC [4, 7]: 0.2 µg/mL
CNC(=O)OC/C=C\C1=C(C(=O)[O-])N2C(=O)C(NC(=O)/C(=N\O)c3csc(N)n3)[C@H]2SC1.[Na+] (stereo partly shown) [Example 33, Sodium 7-[(Z)-2-(2-aminothiazol-4-yl)-2-hydroxyiminoacetamido]-3-[(Z)-3-(N-methylcarbamoyloxy)-1-propenyl]-3-cephem-4-carboxylate]	–	–	0.1	≤ 0.006	0.025	0.025	0.012	–
CNC(=O)OC/C=C\C1=C(C(=O)O)N2C(=O)C(NC(=O)/C(=N\OC)c3csc(N)n3)C2SC1 (stereo not shown) [Example 38]	0.8 (≈ 1.61 µM)	0.05 (≈ 0.101 µM)	–	–	–	–	–	MIC [2, 9]: 0.012 µg/mL (≈ 0.0242 µM); MIC [3, 10]: 0.05 µg/mL (≈ 0.101 µM); MIC [4, 7]: 0.2 µg/mL (≈ 0.403 µM)
CC(C)NC(=O)OC/C=C\C1=C(C(=O)[O-])N2C(=O)C(NC(=O)/C(=N\O)c3csc(N)n3)[C@H]2SC1.[Na+] (stereo partly shown) [Example 40, Sodium 7-[(Z)-2-(2-aminothiazol-4-yl)-2-hydroxyiminoacetamido]-3-[(Z)-3-(N-isopropylcarbamoyloxy)-1-propenyl]-3-cephem-4-carboxylate]	–	–	0.2	0.025	0.05	0.1	0.1	–
CCNC(=O)OC/C=C\C1=C(C(=O)[O-])N2C(=O)C(NC(=O)/C(=N\O)c3csc(N)n3)[C@H]2SC1.[Na+] (stereo partly shown) [Example 42, Sodium 7-[(Z)-2-(2-aminothiazol-4-yl)-2-hydroxyiminoacetamido]-3-[(Z)-3-(N-ethylcarbamoyloxy)-1-propenyl]-3-cephem-4-carboxylate]	–	–	0.1	≤ 0.006	0.05	0.05	0.05	–
Nc1nc(/C(=N/O)C(=O)NC2C(=O)N3C(C(=O)[O-])=C(/C=C\COC(=O)NCCCl)CS[C@H]23)cs1.[Na+] (stereo partly shown) [Example 44, Sodium 7-[(Z)-2-(2-aminothiazol-4-yl)-2-hydroxyiminoacetamido]-3-[(Z)-3-(N-(2-chloroethyl)carbamoyloxy)-1-propenyl]-3-cephem-4-carboxylate]	–	–	0.1	≤ 0.006	0.05	0.05	0.05	–
C=CCNC(=O)OC/C=C\C1=C(C(=O)O)N2C(=O)C(NC(=O)/C(=N\O)c3csc(N)n3)C2SC1 (stereo not shown) [Example 46, Sodium 7-[(Z)-2-(2-aminothiazol-4-yl)-2-hydroxyiminoacetamido]-3-[(Z)-30(N-allylcarbamoyloxy)-1-propenyl] -3-cephem-4-carboxylate]	0.2	0.05	–	–	–	–	–	MIC [2, 9]: 0.012 µg/mL; MIC [3, 10]: 0.05 µg/mL; MIC [4, 7]: 0.1 µg/mL
CO/N=C(\C(=O)N[C@@H]1C(=O)N2C(C(=O)[O-])=C(/C=C\C3CCCO3)CS[C@H]12)c1csc(N)n1.[Na+] (stereo partly drawn) [Example 49, Sodium 7β-[(Z)-2-aminothiazol-4-yl-2-methoxyiminoacetamido]-3-[(Z)-2-(tetrahydrofuran-2-yl)vinyl]-3-cephem-4-carboxylate]	–	–	1.56	0.1	0.05	0.8	0.4	–
